{"source": "PubChem BioAssay AID256", "about": "(DTP/NCI, 2004)", "system": "CD2F1 mice, L1210 leukemia ip, survival T/C", "experiment": "NCI In Vivo Anticancer Drug Screen. Data for tumor model L1210 Leukemia (intraperitoneal) in CD2F1 (CDF1) mice", "conditions": "higher = longer survival", "procedure,_shortened": "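Mice carrying a transplanted tumor received test compound or vehicle alone. The value is the measurement in the treated group divided by that in the vehicle-treated control group.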", "key": {"[1]": {"conditions": "endpoint: mean survival time, dose: 100.0 mg/kg/injection, schedule: Q04DX003 (ip), vehicle: saline with Tween-80"}, "[2]": {"conditions": "endpoint: mean survival time, dose: 200.0 mg/kg/injection, schedule: Q04DX003 (ip), vehicle: saline with Tween-80"}, "[3]": {"conditions": "endpoint: mean survival time, dose: 400.0 mg/kg/injection, schedule: Q04DX003 (ip), vehicle: saline with Tween-80"}, "[4]": {"conditions": "endpoint: mean survival time, dose: 100.0 mg/kg/injection, schedule: Q01DX009 (ip), vehicle: saline with Tween-80"}, "[5]": {"conditions": "endpoint: mean survival time, dose: 200.0 mg/kg/injection, schedule: Q01DX009 (ip), vehicle: saline with Tween-80"}, "[6]": {"conditions": "endpoint: mean survival time, dose: 400.0 mg/kg/injection, schedule: Q01DX009 (ip), vehicle: saline with Tween-80"}}, "note": "Several values for one entry are separate records, joined by “and”; a condition that tells them apart may be missing. Identical values can stand only once. Inconclusive results and toxic doses are left out."}
{"smiles": "COC(=O)/C=N/Nc1ccc(C)cc1", "values": [{"measurement": "T/C", "setting": "endpoint: mean survival time, dose: 100.0 mg/kg/injection, schedule: Q01DX009 (ip), vehicle: water", "result": "86 % of control"}, {"measurement": "T/C", "setting": "endpoint: mean survival time, dose: 200.0 mg/kg/injection, schedule: Q01DX009 (ip), vehicle: water", "result": "88 % of control"}, {"measurement": "T/C", "setting": "endpoint: mean survival time, dose: 400.0 mg/kg/injection, schedule: Q01DX009 (ip), vehicle: water", "result": "86 % of control"}]}
{"smiles": "CC[NH-].[Cl][Pt+2][Cl].[NH-]C1CC1", "values": [{"measurement": "T/C", "setting": "endpoint: mean survival time, dose: 3.13 mg/kg/injection, schedule: Q04DX003 (ip), vehicle: distilled water + Tween-80", "result": "116 % of control"}]}
{"smiles": "[NH-]CC[NH-].[NH-]CC[NH-].[NH-]CC[NH-].[Ni+2].[O-][Cl+3]([O-])([O-])O", "values": [{"measurement": "T/C", "setting": "endpoint: mean survival time, dose: 25.0 mg/kg/injection, schedule: Q04DX002 (ip), vehicle: saline with Tween-80", "result": "117 % of control"}, {"measurement": "T/C", "setting": "endpoint: mean survival time, dose: 50.0 mg/kg/injection, schedule: Q04DX002 (ip), vehicle: saline with Tween-80", "result": "92 % of control"}]}
{"smiles": "Cc1cc(S(N)(=O)=O)c(N)c(S(N)(=O)=O)c1", "values": [{"measurement": "T/C", "setting": "[1]", "result": "96 % of control"}, {"measurement": "T/C", "setting": "[2]", "result": "93 % of control"}, {"measurement": "T/C", "setting": "[3]", "result": "102 % of control"}]}
{"smiles": "CC(=O)OC1C(CO)OC2C1Oc1nc(=N)c(F)cn12", "note": "(stereo unspecified)", "values": [{"measurement": "T/C", "setting": "endpoint: mean survival time, dose: 3.13 mg/kg/injection, schedule: Q01DX009 (ip), vehicle: saline", "result": "101 % of control"}, {"measurement": "T/C", "setting": "endpoint: mean survival time, dose: 6.25 mg/kg/injection, schedule: Q01DX009 (ip), vehicle: saline", "result": "106 % of control"}, {"measurement": "T/C", "setting": "endpoint: mean survival time, dose: 12.5 mg/kg/injection, schedule: Q01DX009 (ip), vehicle: saline", "result": "110 % of control"}, {"measurement": "T/C", "setting": "endpoint: mean survival time, dose: 25.0 mg/kg/injection, schedule: Q01DX009 (ip), vehicle: saline", "result": "116 % of control"}]}
{"smiles": "COc1ccc(CN(C)CCO)cc1OC", "values": [{"measurement": "T/C", "setting": "endpoint: median survival time, dose: 25.0 mg/kg/injection, schedule: Q04DX003 (ip), vehicle: saline", "result": "100 % of control"}, {"measurement": "T/C", "setting": "endpoint: median survival time, dose: 50.0 mg/kg/injection, schedule: Q04DX003 (ip), vehicle: saline", "result": "100 % of control"}, {"measurement": "T/C", "setting": "endpoint: median survival time, dose: 100.0 mg/kg/injection, schedule: Q04DX003 (ip), vehicle: saline", "result": "90 % of control"}, {"measurement": "T/C", "setting": "endpoint: median survival time, dose: 200.0 mg/kg/injection, schedule: Q04DX003 (ip), vehicle: saline", "result": "100 % of control"}]}
{"smiles": "Cc1ccc(-n2c(O)c(N=Nc3ccccc3)c(=O)n(-c3ccc(C)cc3)c2=S)cc1", "values": [{"measurement": "T/C", "setting": "endpoint: mean survival time, dose: 100.0 mg/kg/injection, schedule: Q01DX001 (ip), vehicle: saline with Tween-80", "result": "95 % of control"}, {"measurement": "T/C", "setting": "endpoint: mean survival time, dose: 200.0 mg/kg/injection, schedule: Q01DX001 (ip), vehicle: saline with Tween-80", "result": "100 % of control"}, {"measurement": "T/C", "setting": "endpoint: mean survival time, dose: 400.0 mg/kg/injection, schedule: Q01DX001 (ip), vehicle: saline with Tween-80", "result": "97 % of control"}]}
{"smiles": "O=Cc1n[nH]nc1-c1ccccc1", "values": [{"measurement": "T/C", "setting": "[4]", "result": "94 % of control"}, {"measurement": "T/C", "setting": "[1]", "result": "98 % of control"}, {"measurement": "T/C", "setting": "[5]", "result": "100 % of control"}, {"measurement": "T/C", "setting": "[2]", "result": "101 % of control"}, {"measurement": "T/C", "setting": "[6]", "result": "103 % of control"}, {"measurement": "T/C", "setting": "[3]", "result": "95 % of control"}]}
{"smiles": "Cc1cccc(/C=N\\N=C\\c2cccc(C)n2)n1", "values": [{"measurement": "T/C", "setting": "[4]", "result": "96 % of control"}, {"measurement": "T/C", "setting": "[1]", "result": "95 % of control"}, {"measurement": "T/C", "setting": "[5]", "result": "90 % of control"}, {"measurement": "T/C", "setting": "[2]", "result": "91 % of control"}, {"measurement": "T/C", "setting": "[6]", "result": "98 % of control"}, {"measurement": "T/C", "setting": "[3]", "result": "107 % of control"}]}
{"smiles": "CCC1(O)C(=O)OCc2c1cc1n(c2=O)Cc2cc3cc(N)ccc3nc2-1", "note": "(stereo unspecified)", "values": [{"measurement": "T/C", "setting": "endpoint: median survival time, dose: 1.35 mg/kg/injection, schedule: Q01DX005 (ip), vehicle: saline", "result": "243 % of control"}, {"measurement": "T/C", "setting": "endpoint: median survival time, dose: 1.87 mg/kg/injection, schedule: Q01DX005 (ip), vehicle: saline", "result": "188 % of control"}, {"measurement": "T/C", "setting": "endpoint: median survival time, dose: 2.0 mg/kg/injection, schedule: Q04DX002 (ip), vehicle: saline", "result": "158 % of control"}, {"measurement": "T/C", "setting": "endpoint: median survival time, dose: 2.25 mg/kg/injection, schedule: Q01DX005 (ip), vehicle: saline", "result": "243 % of control"}, {"measurement": "T/C", "setting": "endpoint: median survival time, dose: 3.75 mg/kg/injection, schedule: Q01DX005 (ip), vehicle: saline", "result": "271 % of control and 365 % of control"}, {"measurement": "T/C", "setting": "endpoint: median survival time, dose: 4.0 mg/kg/injection, schedule: Q04DX002 (ip), vehicle: saline", "result": "157 % of control and 170 % of control"}, {"measurement": "T/C", "setting": "endpoint: median survival time, dose: 6.25 mg/kg/injection, schedule: Q01DX005 (ip), vehicle: saline", "result": "90 % of control"}, {"measurement": "T/C", "setting": "endpoint: median survival time, dose: 7.5 mg/kg/injection, schedule: Q01DX005 (ip), vehicle: saline", "result": "123 % of control"}, {"measurement": "T/C", "setting": "endpoint: median survival time, dose: 8.0 mg/kg/injection, schedule: Q04DX002 (ip), vehicle: saline", "result": "256 % of control and 329 % of control"}, {"measurement": "T/C", "setting": "endpoint: median survival time, dose: 15.0 mg/kg/injection, schedule: Q01DX005 (ip), vehicle: saline", "result": "100 % of control"}, {"measurement": "T/C", "setting": "endpoint: median survival time, dose: 16.0 mg/kg/injection, schedule: Q04DX002 (ip), vehicle: saline", "result": "243 % of control and 329 % of control"}, {"measurement": "T/C", "setting": "endpoint: median survival time, dose: 30.0 mg/kg/injection, schedule: Q01DX005 (ip), vehicle: saline", "result": "88 % of control"}, {"measurement": "T/C", "setting": "endpoint: median survival time, dose: 32.0 mg/kg/injection, schedule: Q04DX002 (ip), vehicle: saline", "result": "268 % of control"}]}
{"smiles": "CCOc1ccccc1C1N(C)CCCN1C", "values": [{"measurement": "T/C", "setting": "endpoint: mean survival time, dose: 6.25 mg/kg/injection, schedule: Q01DX009 (ip), vehicle: saline with Tween-80", "result": "105 % of control"}, {"measurement": "T/C", "setting": "endpoint: mean survival time, dose: 12.5 mg/kg/injection, schedule: Q01DX009 (ip), vehicle: saline with Tween-80", "result": "100 % of control"}, {"measurement": "T/C", "setting": "endpoint: mean survival time, dose: 25.0 mg/kg/injection, schedule: Q01DX009 (ip), vehicle: saline with Tween-80", "result": "110 % of control"}]}
{"smiles": "O=C(O)CC1(O)CCCCC1c1ccccc1", "note": "(stereo unspecified)", "values": [{"measurement": "T/C", "setting": "[1]", "result": "104 % of control"}, {"measurement": "T/C", "setting": "[2]", "result": "105 % of control"}, {"measurement": "T/C", "setting": "[3]", "result": "88 % of control"}]}
